According to ChEMBL document CHEMBL1201862, “PubChem BioAssay data set” (2004):
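Assay format: 96-well plates, 48-hour exposure. The concentration for 50% growth inhibition is given as GI50.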 The source made the active and inactive calls. Cut-off read from the data, not from the text of the source: active = GI50 up to about 1.1 µM and inactive = higher.

What was measured:
Experiment in all cases: NCI-60 cell line screen, 48 h
OVCAR-3 = tested on: OVCAR-3
HOP-62 = tested on: HOP-62
DU-145 = tested on: DU-145
ACHN = tested on: ACHN
SF-268 = tested on: SF-268
NCI-H23 = tested on: NCI-H23
CAKI-1 = tested on: CAKI-1
SN12C = tested on: SN12C
SK-OV-3 = tested on: SK-OV-3
PC-3 = tested on: PC-3
Hs-578T = tested on: Hs-578T
MOLT-4 = tested on: MOLT-4
KM12 = tested on: KM12
T47D = tested on: T47D
RPMI-8226 = tested on: RPMI-8226
BT-549 = tested on: BT-549
HOP-92 = tested on: HOP-92
MDA-MB-231 = tested on: MDA-MB-231
SR = tested on: SR
HCT-15 = tested on: HCT-15
UACC-62 = tested on: UACC-62
SW-620 = tested on: SW-620
HT-29 = tested on: HT-29
NCI-H522 = tested on: NCI-H522
IGROV-1 = tested on: IGROV-1
COLO 205 = tested on: COLO 205
SK-MEL-2 = tested on: SK-MEL-2
K562 = tested on: K562
M14 = tested on: M14
MDA-N = tested on: MDA-N
NCI/ADR-RES = tested on: NCI/ADR-RES
RXF 393 = tested on: RXF 393
EKVX = tested on: EKVX
A498 = tested on: A498
UACC-257 = tested on: UACC-257
CCRF-CEM = tested on: CCRF-CEM
HCC 2998 = tested on: HCC 2998
NCI-H226 = tested on: NCI-H226
OVCAR-5 = tested on: OVCAR-5
LOX IMVI = tested on: LOX IMVI
A549 = tested on: A549
SK-MEL-28 = tested on: SK-MEL-28
OVCAR-8 = tested on: OVCAR-8
HCT-116 = tested on: HCT-116
786-0 = tested on: 786-0
MDA-MB-435 = tested on: MDA-MB-435
SNB-75 = tested on: SNB-75
TK-10 = tested on: TK-10
SNB-19 = tested on: SNB-19
U-251 = tested on: U-251
SF-539 = tested on: SF-539
MCF7 = tested on: MCF7
SK-MEL-5 = tested on: SK-MEL-5
SF-295 = tested on: SF-295
OVCAR-4 = tested on: OVCAR-4
NCI-H460 = tested on: NCI-H460
Malme-3M = tested on: Malme-3M
UO-31 = tested on: UO-31
HL-60 = tested on: HL-60

For `COc1cc([C@@H]2c3cc4c(cc3[C@@H](c3c(O)cc(O)c5c3O[C@H](c3ccc(O)c(O)c3)[C@H](OC(=O)c3cc(O)c(O)c(O)c3)C5)[C@H]3COC(=O)[C@H]23)OCO4)cc(OC)c1OC`, the GI50 (OVCAR-3) was 4.01 µM (inactive), the GI50 (HOP-62) was 11.9 µM (inactive) and the GI50 (DU-145) was 22.7 µM (inactive). For the same compound, the GI50 (ACHN) was 1.33 µM (inactive), the GI50 (SF-268) was 5.79 µM (inactive) and the GI50 (NCI-H23) was 38.5 µM (inactive). The GI50 (CAKI-1) was 13.8 µM (inactive), the GI50 (SN12C) was 12.9 µM (inactive) and the GI50 (SK-OV-3) was 9.46 µM (inactive). For the same compound, the GI50 (PC-3) was 5.28 µM (inactive), the GI50 (Hs-578T) was 4.07 µM (inactive) and the GI50 (MOLT-4) was 7.74 µM (inactive). The GI50 (KM12) was 3.88 µM (inactive), the GI50 (T47D) was > 100 µM (inactive) and the GI50 (RPMI-8226) was 5 µM (inactive). For the same compound, the GI50 (BT-549) was > 34.4 µM (inactive), the GI50 (HOP-92) was > 100 µM (inactive) and the GI50 (MDA-MB-231) was 4.52 µM (inactive). For the same compound, the GI50 (SR) was 2.69 µM (inactive), the GI50 (HCT-15) was 18.7 µM and the GI50 (UACC-62) was 4.73 µM (inactive). For the same compound, the GI50 (SW-620) was 5.87 µM (inactive), the GI50 (HT-29) was 17.6 µM (inactive) and the GI50 (NCI-H522) was 3.92 µM (inactive). The GI50 (IGROV-1) was 27 µM (inactive), the GI50 (COLO 205) was 25.9 µM (inactive) and the GI50 (SK-MEL-2) was 11.7 µM (inactive). The GI50 (K562) was 4.78 µM (inactive), the GI50 (M14) was 9.93 µM (inactive) and the GI50 (MDA-N) was 3.07 µM (inactive). For the same compound, the GI50 (NCI/ADR-RES) was 33 µM (inactive), the GI50 (RXF 393) was 4.67 µM (inactive) and the GI50 (EKVX) was 45.5 µM (inactive). For the same compound, the GI50 (A498) was 3.74 µM (inactive), the GI50 (UACC-257) was 43.1 µM (inactive) and the GI50 (CCRF-CEM) was 2.44 µM (inactive). For the same compound, the GI50 (HCC 2998) was 20.2 µM (inactive), the GI50 (NCI-H226) was 2.65 µM (inactive) and the GI50 (OVCAR-5) was 53.3 µM (inactive). For the same compound, the GI50 (LOX IMVI) was 5.77 µM (inactive), the GI50 (A549) was 11.9 µM (inactive) and the GI50 (SK-MEL-28) was > 50.7 µM (inactive). For the same compound, the GI50 (OVCAR-8) was 7.1 µM (inactive), the GI50 (HCT-116) was 5 µM (inactive) and the GI50 (786-0) was 12.6 µM (inactive). The GI50 (MDA-MB-435) was 2.54 µM (inactive), the GI50 (SNB-75) was 3.47 µM (inactive) and the GI50 (TK-10) was > 100 µM (inactive). The GI50 (SNB-19) was 52.7 µM (inactive), the GI50 (U-251) was 6.12 µM (inactive) and the GI50 (SF-539) was 4.22 µM (inactive). The GI50 (MCF7) was 3.75 µM (inactive), the GI50 (SK-MEL-5) was 7.38 µM (inactive) and the GI50 (SF-295) was 3.91 µM (inactive). For the same compound, the GI50 (OVCAR-4) was 16.6 µM (inactive) and the GI50 (NCI-H460) was 7.33 µM (inactive).
In the case of `NC1=Nc2cc(Cl)ccc2Sc2nc3ccccc3n21`, the GI50 (OVCAR-3) was > 100 µM (inactive), the GI50 (HOP-62) was > 86.3 µM (inactive) and the GI50 (DU-145) was > 100 µM (inactive). For the same compound, the GI50 (Malme-3M) was > 100 µM (inactive), the GI50 (ACHN) was > 100 µM (inactive) and the GI50 (SF-268) was > 61.5 µM (inactive). The GI50 (NCI-H23) was 6.53 µM (inactive), the GI50 (CAKI-1) was > 100 µM (inactive) and the GI50 (SN12C) was > 100 µM (inactive). For the same compound, the GI50 (SK-OV-3) was > 100 µM (inactive), the GI50 (PC-3) was 6.76 µM (inactive) and the GI50 (Hs-578T) was > 72.3 µM (inactive). The GI50 (MOLT-4) was 2.61 µM (inactive), the GI50 (KM12) was > 100 µM (inactive) and the GI50 (T47D) was > 33.8 µM (inactive). For the same compound, the GI50 (RPMI-8226) was 5.73 µM (inactive), the GI50 (BT-549) was > 100 µM (inactive) and the GI50 (HOP-92) was 16.1 µM (inactive). For the same compound, the GI50 (MDA-MB-231) was > 20.7 µM (inactive), the GI50 (SR) was 2.64 µM (inactive) and the GI50 (HCT-15) was > 100 µM. The GI50 (UACC-62) was 4.66 µM (inactive), the GI50 (SW-620) was > 86.3 µM (inactive) and the GI50 (HT-29) was 4.53 µM (inactive). The GI50 (NCI-H522) was 3.92 µM (inactive), the GI50 (IGROV-1) was 4.7 µM (inactive) and the GI50 (COLO 205) was 2.5 µM (inactive). For the same compound, the GI50 (SK-MEL-2) was 20 µM (inactive), the GI50 (K562) was 3.47 µM (inactive) and the GI50 (M14) was 2.52 µM (inactive). The GI50 (MDA-N) was 3.44 µM (inactive), the GI50 (NCI/ADR-RES) was > 100 µM (inactive) and the GI50 (EKVX) was 20.3 µM (inactive). The GI50 (A498) was > 100 µM (inactive), the GI50 (UACC-257) was 5.83 µM (inactive) and the GI50 (CCRF-CEM) was 1.22 µM (inactive). The GI50 (HCC 2998) was > 100 µM (inactive), the GI50 (NCI-H226) was 2.86 µM (inactive) and the GI50 (LOX IMVI) was 4.4 µM (inactive). The GI50 (A549) was > 24.2 µM (inactive), the GI50 (SK-MEL-28) was > 100 µM (inactive) and the GI50 (OVCAR-8) was 5.09 µM (inactive). The GI50 (HCT-116) was 1.87 µM (inactive), the GI50 (UO-31) was > 100 µM (inactive) and the GI50 (786-0) was 14.2 µM (inactive). The GI50 (HL-60) was 2.39 µM (inactive), the GI50 (MDA-MB-435) was > 100 µM (inactive) and the GI50 (SNB-75) was 21.4 µM (inactive). For the same compound, the GI50 (TK-10) was > 88.9 µM (inactive), the GI50 (SNB-19) was 22.2 µM (inactive) and the GI50 (U-251) was 4.48 µM (inactive). For the same compound, the GI50 (SF-539) was > 100 µM (inactive), the GI50 (MCF7) was > 59.2 µM (inactive) and the GI50 (SK-MEL-5) was 4.92 µM (inactive). The GI50 (SF-295) was > 95.7 µM (inactive), the GI50 (OVCAR-4) was > 20.8 µM (inactive) and the GI50 (NCI-H460) was 4.13 µM (inactive).
